Test results as given in patent US20050245508A1, “Treatment of malignant gliomas with TGF-beta inhibitors” (SCIOS, Inc., priority 2003, published 2005).
pEC50: −log10 of the molar value.

Columns and labels:
SMA-560 glioma cells [1] = assay: Glioma cell growth, [methyl-3H]-thymidine incorporation; type: cell-based, murine
Description: (§1) FIG. 2. Abrogation of autocrine TGF-β signaling in glioma cells by Compound No. 79. A. The cells were seeded at 10^4 cells/well in 96 well plates and cultured in the absence or presence of Compound No. 79 for 48 h in serum-free medium. Growth was assessed by [methyl-^3H]-thymidine incorporation at 48 h (*p<0.05, t-test). B. Lysates from untreated glioma cells or cells preexposed to Compound No. 79 (1 μM) for 24 h or exposed to TGF-b2 (5 ng/ml) for 1 h or both were assessed for the levels of p-Smad2 or total Smad2/3. Note that the antibodies were specific to p-Smad2 and total Smad 2 and 3, respectively.
(§2) The glioma cells and CCL64 cells were maintained in DMEM supplemented with 2 mM L-glutamine (Gibco Life Technologies, Paisley, UK), 10% FCS (Biochrom KG, Berlin, Germany) and penicillin (100 IU/ml)/streptomycin (100 μg/ml) (Gibco). Growth and viability of the glioma cells was examined by crystal violet, LDH release (Roche, Mannheim, Germany) and trypan blue dye exclusion assays. To assess clonogenicity, 500 SMA-560 cells were seeded into 6 well plates (9.4 cm^2). After formation of visible cell formations, colonies>20 cells were counted.

LN-308 targets = assay: Polyclonal NK cell lytic activity, 51Cr release; type: cell-based, human
Description: FIG. 3. Modulation of allogeneic anti-glioma immune responses by Compound No. 79 involves TGF-β antagonism. A. The lytic activity against LN-308 targets of PBL (squares) or purified T cells (triangles) preincubated with irradiated LN-308 cells in the absence (open symbols) or presence (filled symbols) of Compound No. 79 (1 μM) was determined in ^51Cr release assays. B-D. PBL were cultured in the absence (left) or presence (right) of irradiated LN-308 cells for 5 days. The cultures contained Compound No. 79 (1 μM) (filled bars) or not (open bars). Subsequently these effector cells were cocultured for 24 h with fresh non-irradiated LN-308 cells in the absence of Compound No. 79. The release of IFN-γ (B), TNF-α (C) or IL-10 (D) was assessed by Elispot assay. Data are expressed as cytokine-producing cells per 5×10^5 effector cells (n=3, *p<0.05, **p<0.01, t-test, effect of Compound No. 79). E, F. Polyclonal NK cell cultures were exposed to TGF-β1 (5 ng/ml) (E) or diluted (1:4) glioma cell SN (F), without or with Compound No. 79 (1 μM), for 48 h and subsequently used as effectors in ^51Cr release assays using LN-308 cells as targets. Compound No. 79 alone or TGF-β antibody alone had no effect on NK cell activity in these assays (data not shown).
Human PBMC were isolated from healthy donors by density gradient centrifugation (Biocoll, Biochrom KG). Monocytes were depleted by adhesion and differential centrifugation to obtain peripheral blood lymphocytes (PBL). To obtain purified T cells, the PBMC were depleted of B cells and monocytes using LymphoKwik T™ reagent (One Lambda Inc., Canoga Park, Calif.). […]
HLA-A2-mismatched PBL or T cells (107/25 cm2 flask) were cocultured with 106 irradiated (30 Gy) glioma cells for 5 days. […] The maximum 51Cr release was determined by addition of NP40 (1%). After 4 h the supernatants were transferred to a Luma-PlateTM-96 (Packard, Dreieich, Germany) and measured. The percentage of 51Cr release was calculated as follows: 100×([experimental release−spontaneous release]/[maximum release−spontaneous release]).

LN-308 glioma cells [2] = assay: Cytotoxicity, LDH release and trypan blue dye exclusion; type: cell-based, human; settings: up to 1 μM for 72 h
Description: as §2

LN-308 glioma cells [3] = assay: Glioma cell growth, [methyl-3H]-thymidine incorporation; type: cell-based, human
Description: as §1, §2

[4] = tested on: CCL64 mink lung epithelial cells; assay: CCL64 TGF-β bioassay (growth, crystal violet); type: cell-based
Description: FIG. 1. Prevention of the growth inhibitory effects of recombinant and glioma-derived TGF-b1 and TGF-b2 by a TGF-β inhibitor (Compound No. 79 in Table 2). A. CCL64 cells were exposed to human recombinant TGF-b1 (filled symbols) or TGF-b2 (open symbols) (10 ng/ml) in the absence or presence of increasing concentrations of Comopund No. 79 for 72 h. B. CCL64 cells were maintained in serum-free medium containing heat-activated glioma cell SN (1:1) in the absence or presence of Compound No. 79 for 72 h. Growth was assessed by crystal violet assay (mean and SD, n=3).
The levels of bioactive TGF-β were determined using the CCL64 bioassay. Briefly, […] CCL64 cells were adhered to 96 well plates for 24 h, full medium was replaced by serum-free medium, and the cells were exposed to recombinant TGF-β1/2 or glioma cell culture supernatants diluted in serum-free medium for 72 h. Growth was assessed by crystal violet staining at 72 h. Glioma cell supernatants were harvested from confluent cultures maintained for 48 h in serum-free medium and heat-treated (5 min, 85° C.) to activate latent TGF-β (Leitlein et al., J. Immunol., 166:7238-7243 (2001)).

[5] = Solubility in drinking water; type: physicochemical
SMA-560 glioma cells [6] = assay: Cytotoxicity, LDH release and trypan blue dye exclusion; type: cell-based, murine; settings: up to 1 μM for 72 h
Description: as §2

[7] = concentrations required to block TGF-β in the CCL64 bioassay, 48 h
[8] = higher concentrations of up to 1 μM, FIG. 2A

Fc1ccc(Cl)cc1-c1nc(Nc2ccncc2)c2nccnc2n1 [Compound No. 79]
proliferation (SMA-560 glioma cells [1]; [7]): no effect
growth (SMA-560 glioma cells [1]; [8]): moderately inhibited
TGF-β-mediated inhibition of NK cell lytic activity (LN-308 targets; TGF-β1 5 ng/ml, 1 μM, 48 h, FIG. 3E): relieved
inhibition of NK cell activity by LN-308 cell supernatants (LN-308 targets; supernatant diluted 1:4, 48 h, FIG. 3F): blocked
NK cell activity, agent alone (LN-308 targets; without TGF-β or supernatant, data not shown): no effect
cytotoxic effects (LN-308 glioma cells [2]): neiter LDH release nor trypan blue dye exclusion assays revealed cytotoxic effects
proliferation (LN-308 glioma cells [3]; [7]): no effect
growth (LN-308 glioma cells [3]; [8]): moderately inhibited
pEC50 ([4]; TGF-β1 or TGF-β2 10 ng/ml, 72 h, FIG. 1A, read-out: EC50 of rescue of TGF-β-mediated inhibition of growth): ~7.52
growth inhibition mediated by glioma cell supernatants ([4]; diluted serum-free SMA-560 or LN-308 supernatants, same concentrations, FIG. 1B): nullified
solubility [5]: relatively poor solubility
cytotoxic effects (SMA-560 glioma cells [6]): neiter LDH release nor trypan blue dye exclusion assays revealed cytotoxic effects
